Measurements: patent US20230002367A1, “BIFUNCTIONAL COMPOUNDS” (Hoffmann-La Roche Inc., priority 2019, published 2023)

Biological target: T1, SMARCA2 (Homo sapiens, UniProt P51531)
T1 construct: endogenous in cells
Assay: SMARCA2 HiBiT degradation assay (cellular)
Format: cell-based
Conditions: for Emax: A549, Emax = amount of residual protein remaining in the cell following compound treatment; for DC50: SMARCA2 HiBiT cells, luminescence readout, 11-point titration from 10 μM, 6 hours or 16 hours, read-out: HiBit A549 SMARCA2 IP

T1 sequence (P51531 whole entry): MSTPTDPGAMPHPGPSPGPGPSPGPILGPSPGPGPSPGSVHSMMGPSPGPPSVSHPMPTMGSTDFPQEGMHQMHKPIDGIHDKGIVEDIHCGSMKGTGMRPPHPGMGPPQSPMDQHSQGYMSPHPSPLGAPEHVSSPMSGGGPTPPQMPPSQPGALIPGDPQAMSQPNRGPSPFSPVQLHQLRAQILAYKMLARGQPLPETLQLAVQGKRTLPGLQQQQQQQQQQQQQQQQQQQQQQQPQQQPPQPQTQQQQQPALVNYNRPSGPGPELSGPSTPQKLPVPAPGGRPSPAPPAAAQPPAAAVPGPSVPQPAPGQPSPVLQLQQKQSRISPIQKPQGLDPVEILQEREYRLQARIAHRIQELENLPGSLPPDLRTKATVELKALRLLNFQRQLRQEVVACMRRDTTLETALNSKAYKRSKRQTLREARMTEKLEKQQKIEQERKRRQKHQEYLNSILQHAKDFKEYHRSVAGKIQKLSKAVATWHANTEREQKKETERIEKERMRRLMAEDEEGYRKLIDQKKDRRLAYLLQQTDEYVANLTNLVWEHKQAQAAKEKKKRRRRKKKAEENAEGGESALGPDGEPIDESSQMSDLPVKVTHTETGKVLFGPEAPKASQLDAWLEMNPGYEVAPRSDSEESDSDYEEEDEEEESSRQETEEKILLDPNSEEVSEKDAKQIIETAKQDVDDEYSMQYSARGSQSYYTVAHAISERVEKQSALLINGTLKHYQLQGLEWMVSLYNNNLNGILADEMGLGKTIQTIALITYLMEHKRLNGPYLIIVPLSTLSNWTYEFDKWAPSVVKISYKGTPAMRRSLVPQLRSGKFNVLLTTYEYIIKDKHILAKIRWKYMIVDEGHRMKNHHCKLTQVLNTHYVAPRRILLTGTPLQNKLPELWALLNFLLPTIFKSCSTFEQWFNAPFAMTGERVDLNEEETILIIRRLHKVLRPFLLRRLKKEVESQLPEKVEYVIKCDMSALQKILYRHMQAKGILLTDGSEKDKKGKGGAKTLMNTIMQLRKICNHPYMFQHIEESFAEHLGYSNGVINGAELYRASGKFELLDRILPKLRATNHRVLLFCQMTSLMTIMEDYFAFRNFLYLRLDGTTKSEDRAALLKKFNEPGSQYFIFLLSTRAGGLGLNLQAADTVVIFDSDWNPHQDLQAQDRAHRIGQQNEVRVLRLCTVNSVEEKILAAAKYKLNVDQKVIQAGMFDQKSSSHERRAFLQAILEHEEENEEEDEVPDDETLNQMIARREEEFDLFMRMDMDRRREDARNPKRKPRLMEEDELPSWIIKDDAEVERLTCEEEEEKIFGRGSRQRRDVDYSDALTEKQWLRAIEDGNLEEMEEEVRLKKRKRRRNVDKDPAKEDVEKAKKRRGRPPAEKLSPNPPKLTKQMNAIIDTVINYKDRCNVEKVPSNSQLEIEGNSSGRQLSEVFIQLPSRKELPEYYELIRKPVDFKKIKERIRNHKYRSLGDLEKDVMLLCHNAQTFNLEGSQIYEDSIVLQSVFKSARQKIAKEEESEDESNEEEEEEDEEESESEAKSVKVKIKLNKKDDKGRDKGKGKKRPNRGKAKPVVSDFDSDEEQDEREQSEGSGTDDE

| SMILES | Emax | DC50 |
| --- | --- | --- |
| Cc1ncsc1-c1ccc([C@H](C)NC(=O)[C@@H]2C[C@@H](O)CN2C(=O)[C@@H](NC(=O)CCCCCCCCCCC(=O)N2CCN(CCOc3cccc(CCOc4cc(-c5ccccc5O)nnc4N)c3)CC2)C(C)(C)C)cc1 [Example 59, (2S,4R)-1-[(2S)-2-[[12-[4-[2-[3-[2-[3-amino-6-(2-hydroxyphenyl)pyridazin-4-yl]oxyethyl]phenoxy]ethyl]piperazin-1-yl]-12-oxo-dodecanoyl]amino]-3,3-dimethyl-butanoyl]-4-hydroxy-N-[(1S)-1-[4-(4-methylthiazol-5-yl)phenyl]ethyl]pyrrolidine-2-carboxamide] | 23% | 305 nM |
| Cc1ncsc1-c1ccc([C@H](C)NC(=O)[C@@H]2C[C@@H](O)CN2C(=O)[C@@H](NC(=O)CCCCCCCCCCCCC(=O)N2CCN(CCOc3cccc(CCOc4cc(-c5ccccc5O)nnc4N)c3)CC2)C(C)(C)C)cc1 [Example 60, (2S,4R)-1-[(2S)-2-[[14-[4-[2-[3-[2-[3-amino-6-(2-hydroxyphenyl)pyridazin-4-yl]oxyethyl]phenoxy]ethyl]piperazin-1-yl]-14-oxo-tetradecanoyl]amino]-3,3-dimethyl-butanoyl]-4-hydroxy-N-[(1S)-1-[4-(4-methylthiazol-5-yl)phenyl]ethyl]pyrrolidine-2-carboxamide] | 24% | 300 nM |
| Cc1ncsc1-c1ccc(CNC(=O)[C@@H]2C[C@@H](O)CN2C(=O)[C@@H](NC(=O)CCCCCC(=O)N2CCN(Cc3cccc(C#Cc4cc(-c5ccccc5O)nnc4N)c3)CC2)C(C)(C)C)cc1 [Example 61, (2S,4R)-1-[(2S)-2-[[7-[4-[[3-[2-[3-amino-6-(2-hydroxyphenyl)pyridazin-4-yl]ethynyl]phenyl]methyl]piperazin-1-yl]-7-oxo-heptanoyl]amino]-3,3-dimethyl-butanoyl]-4-hydroxy-N-[[4-(4-methylthiazol-5-yl)phenyl]methyl]pyrrolidine-2-carboxamide] | 59% | 519 nM |
| Cc1ncsc1-c1ccc(CNC(=O)[C@@H]2C[C@@H](O)CN2C(=O)[C@@H](NC(=O)CCCCCCCCC(=O)N2CCN(CCOc3ccc(N4C5CCC4CN(c4cc(-c6ccccc6O)nnc4N)C5)cc3)CC2)C(C)(C)C)cc1 [Example 68, (2S,4R)-1-[(2S)-2-[[10-[4-[2-[4-[3-[3-amino-6-(2-hydroxyphenyl)pyridazin-4-yl]-3,8-diazabicyclo[3.2.1]octan-8-yl]phenoxy]ethyl]piperazin-1-yl]-10-oxo-decanoyl]amino]-3,3-dimethyl-butanoyl]-4-hydroxy-N-[[4-(4-methylthiazol-5-yl)phenyl]methyl]pyrrolidine-2-carboxamide] | 50% | 2320 nM |
| Cc1ncsc1-c1ccc([C@H](C)NC(=O)[C@@H]2C[C@@H](O)CN2C(=O)[C@@H](NC(=O)CCC(=O)N2CCN(CCOc3cccc(CCOc4cc(-c5ccccc5O)nnc4N)c3)CC2)C(C)(C)C)cc1 [Example 73, (2S,4R)-1-[(2S)-2-[[4-[4-[2-[3-[2-[3-amino-6-(2-hydroxyphenyl)pyridazin-4-yl]oxyethyl]phenoxy]ethyl]piperazin-1-yl]-4-oxo-butanoyl]amino]-3,3-dimethyl-butanoyl]-4-hydroxy-N-[(1S)-1-[4-(4-methylthiazol-5-yl)phenyl]ethyl]pyrrolidine-2-carboxamide] | 29% | 1650 nM |
| Cc1ncsc1-c1ccc(CNC(=O)[C@@H]2C[C@@H](O)CN2C(=O)[C@@H](NC(=O)CCCCCCCCC(=O)N2CCN(Cc3cccc(-c4cc(-c5ccccc5O)nnc4N)c3F)CC2)C(C)(C)C)cc1 [Example 74, (2S,4R)-1-[(2S)-2-[[10-[4-[[3-[3-amino-6-(2-hydroxyphenyl)pyridazin-4-yl]-2-fluoro-phenyl]methyl]piperazin-1-yl]-10-oxo-decanoyl]amino]-3,3-dimethyl-butanoyl]-4-hydroxy-N-[[4-(4-methylthiazol-5-yl)phenyl]methyl]pyrrolidine-2-carboxamide] | 63% | 575 nM |
| Cc1ncsc1-c1ccc([C@H](C)NC(=O)[C@@H]2C[C@@H](O)CN2C(=O)[C@@H](NC(=O)CCCCCC(=O)N2CCN(Cc3cccc(OC4CN(c5cc(-c6ccccc6O)nnc5N)C4)c3)CC2)C(C)(C)C)cc1 [Example 83, (2S,4R)-1-[(2S)-2-[[7-[4-[[3-[1-[3-amino-6-(2-hydroxyphenyl)pyridazin-4-yl]azetidin-3-yl]oxyphenyl]methyl]piperazin-1-yl]-7-oxo-heptanoyl]amino]-3,3-dimethyl-butanoyl]-4-hydroxy-N-[(1S)-1-[4-(4-methylthiazol-5-yl)phenyl]ethyl]pyrrolidine-2-carboxamide] | 44% | 789 nM |
| Cc1ncsc1-c1ccc(CNC(=O)[C@@H]2C[C@@H](O)CN2C(=O)[C@@H](NC(=O)CCCCCCCCCCC(=O)N2C3CCC2CN(c2cc(-c4ccccc4O)nnc2N)C3)C(C)(C)C)cc1 [Example 84, (2S,4R)-1-[(2S)-2-[[12-[3-[3-Amino-6-(2-hydroxyphenyl)pyridazin-4-yl]-3,8-diazabicyclo[3.2.1]octan-8-yl]-12-oxo-dodecanoyl]amino]-3,3-dimethyl-butanoyl]-4-hydroxy-N-[[4-(4-methylthiazol-5-yl)phenyl]methyl]pyrrolidine-2-carboxamide] | 38% | 902 nM |
| Cc1ncsc1-c1ccc(CNC(=O)[C@@H]2C[C@@H](O)CN2C(=O)[C@@H](NC(=O)CCCCCC(=O)N2C3CCC2CN(c2cc(-c4ccccc4O)nnc2N)C3)C(C)(C)C)cc1 [Example 85, (2S,4R)-1-[(2S)-2-[[7-[3-[3-Amino-6-(2-hydroxyphenyl)pyridazin-4-yl]-3,8-diazabicyclo[3.2.1]octan-8-yl]-7-oxo-heptanoyl]amino]-3,3-dimethyl-butanoyl]-4-hydroxy-N-[[4-(4-methylthiazol-5-yl)phenyl]methyl]pyrrolidine-2-carboxamide] | 31% | 2190 nM |

Other lines, results leading:

| Emax | DC50 | SMILES |
| --- | --- | --- |
| 25% | 223 nM | Cc1ncsc1-c1ccc([C@H](C)NC(=O)[C@@H]2C[C@@H](O)CN2C(=O)[C@@H](NC(=O)CCCCCCCCC(=O)N2CCN(Cc3cccc(OC4CN(c5cc(-c6ccccc6O)nnc5N)C4)c3)CC2)C(C)(C)C)cc1 [Example 86, (2S,4R)-1-[(2S)-2-[[10-[4-[[3-[1-[3-amino-6-(2-hydroxyphenyl)pyridazin-4-yl]azetidin-3-yl]oxyphenyl]methyl]piperazin-1-yl]-10-oxo-decanoyl]amino]-3,3-dimethyl-butanoyl]-4-hydroxy-N-[(1S)-1-[4-(4-methylthiazol-5-yl)phenyl]ethyl]pyrrolidine-2-carboxamide] |
| 51% | 1300 nM | Cc1ncsc1-c1ccc(CNC(=O)[C@@H]2C[C@@H](O)CN2C(=O)[C@@H](NC(=O)CCCCCCCN2CCN(C(=O)CN(C)Cc3ccc(-c4cc(-c5ccccc5O)nnc4N)cc3)CC2)C(C)(C)C)cc1 [Example 87, (2S,4R)-1-[(2S)-2-[8-[4-[2-[[4-[3-amino-6-(2-hydroxyphenyl)pyridazin-4-yl]phenyl]methyl-methyl-amino]acetyl]piperazin-1-yl]octanoylamino]-3,3-dimethyl-butanoyl]-4-hydroxy-N-[[4-(4-methylthiazol-5-yl)phenyl]methyl]pyrrolidine-2-carboxamide] |
| 56% | 1010 nM | Cc1ncsc1-c1ccc(CNC(=O)[C@@H]2C[C@@H](O)CN2C(=O)[C@@H](NC(=O)CCCCCCCCC(=O)NC2C3CCC2CN(c2cc(-c4ccccc4O)nnc2N)C3)C(C)(C)C)cc1 (stereo partly drawn) [Example 89, N-[3-[3-amino-6-(2-hydroxyphenyl)pyridazin-4-yl]-3-azabicyclo[3.2.1]octan-8-yl]-N′-[(1S)-1-[(2S,4R)-4-hydroxy-2-[[4-(4-methylthiazol-5-yl)phenyl]methylcarbamoyl]pyrrolidine-1-carbonyl]-2,2-dimethyl-propyl]decanediamide] |
| 43% | 693 nM | Cc1ncsc1-c1ccc([C@H](C)NC(=O)[C@@H]2C[C@@H](O)CN2C(=O)[C@@H](NC(=O)CCCCCC(=O)N2CCN(c3cccc(OC4CN(c5cc(-c6ccccc6O)nnc5N)C4)c3)CC2)C(C)(C)C)cc1 [Example 94, (2S,4R)-1-[(2S)-2-[[7-[4-[3-[1-[3-amino-6-(2-hydroxyphenyl)pyridazin-4-yl]azetidin-3-yl]oxyphenyl]piperazin-1-yl]-7-oxo-heptanoyl]amino]-3,3-dimethyl-butanoyl]-4-hydroxy-N-[(1S)-1-[4-(4-methylthiazol-5-yl)phenyl]ethyl]pyrrolidine-2-carboxamide] |
| 50% | 2440 nM | Cc1ncsc1-c1ccc(CNC(=O)[C@@H]2C[C@@H](O)CN2C(=O)[C@@H](NC(=O)CCCCCCCCC(=O)N[C@H]2C[C@H](Oc3cc(-c4ccccc4O)nnc3N)C2)C(C)(C)C)cc1 [Example 95, N-[3-[3-amino-6-(2-hydroxyphenyl)pyridazin-4-yl]oxycyclobutyl]-N′-[(1S)-1-[(2S,4R)-4-hydroxy-2-[[4-(4-methylthiazol-5-yl)phenyl]methylcarbamoyl]pyrrolidine-1-carbonyl]-2,2-dimethyl-propyl]decanediamide] |
| 28% | 200 nM | Cc1ncsc1-c1ccc([C@H](C)NC(=O)[C@@H]2C[C@@H](O)CN2C(=O)[C@@H](NC(=O)CCCCCCCCC(=O)N2CCN(c3cccc(OC4CN(c5cc(-c6ccccc6O)nnc5N)C4)c3)CC2)C(C)(C)C)cc1 [Example 96, (2S,4R)-1-[(2S)-2-[[10-[4-[3-[1-[3-amino-6-(2-hydroxyphenyl)pyridazin-4-yl]azetidin-3-yl]oxyphenyl]piperazin-1-yl]-10-oxo-decanoyl]amino]-3,3-dimethyl-butanoyl]-4-hydroxy-N-[(1S)-1-[4-(4-methylthiazol-5-yl)phenyl]ethyl]pyrrolidine-2-carboxamide] |
